The values below come from ChEMBL document CHEMBL1909294, “Translating clinical findings into knowledge in drug safety evaluation--drug induced liver injury prediction system (DILIps)” (PLoS Comput Biol, 2011).

In series [1] the test system is Hepatotoxicity.
Series [2] deals with Hepatotoxicity. This is another data set of the same source.
Series [3] deals with Hepatotoxicity. This is another data set of the same source.
The subject of series [4] is Hepatotoxicity. This is another data set of the same source.
The test system of series [5] is Hepatotoxicity. The source holds these as a separate data set.
Series [6] concerns Hepatotoxicity. This is another data set of the same source.
Series [7] deals with Hepatotoxicity. The source holds these as a separate data set.
Series [8] has as its system Hepatotoxicity. This is another data set of the same source.
Series [9] relates to Hepatotoxicity. This is another data set of the same source.
For series [10], the system named is Hepatotoxicity. This is another data set of the same source.
The subject of series [11] is Hepatotoxicity. The source holds these as a separate data set.
Series [12] has as its system Hepatotoxicity. This is another data set of the same source.
The test system of series [13] is Hepatotoxicity. This is another data set of the same source.
Series [14] concerns Hepatotoxicity. The source holds these as a separate data set.
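For HepSE Combined Scores in this document: combined hepatic side effect score as listed in the training data of the Drug Induced Liver Injury Prediction System (DILIps).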
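For HepSE bilirubinemia in this document: bilirubinemia hepatic side effect score drawn from the DILIps training data, a prediction system for drug-induced liver injury; call rule not given here.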
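For HepSE cholecystitis in this document: Cholecystitis-related hepatic side effect score drawn from the DILIps (drug-induced liver injury prediction) training data set; call rule not given here.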
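For HepSE cholelithiasis in this document: hepatic side effect score for cholelithiasis, drawn from the DILIps training data for predicting drug-induced liver injury; call rule not given here.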
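For HepSE cirrhosis in this document: cirrhosis hepatic side effect score taken from the DILIps (drug-induced liver injury prediction) training set; call rule not given here.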
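For HepSE elevated liver function tests in this document: hepatic side effect score for raised liver function tests, as recorded in the DILIps training set used for predicting drug-induced liver injury.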
For HepSE hepatic failure in this document: call rule not given here.
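For HepSE hepatic necrosis in this document: score of hepatic side effects for hepatic necrosis, drawn from the training data of DILIps, a prediction system for drug-induced liver injury; call rule not given here.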
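For HepSE hepatitis in this document: Hepatitis-related hepatic side effect score taken from the training data of DILIps, a prediction system for drug-induced liver injury; call rule not given here.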
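For HepSE hepatomegaly in this document: hepatic side effect score for hepatomegaly, taken from the training set of the DILIps drug-induced liver injury prediction system; call rule not given here.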
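For HepSE jaundice in this document: Jaundice-related hepatic side-effect score drawn from the training data of the DILIps (drug-induced liver injury prediction system); call rule not given here.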
For HepSE liver disease in this document: call rule not given here.
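For HepSE liver fatty in this document: hepatic side effect score for fatty liver, taken from the DILIps training set for predicting drug-induced liver injury; call rule not given here.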
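For HepSE liver function tests abnormal in this document: hepatic side effect score taken from the DILIps (drug-induced liver injury prediction system) training data, here covering abnormal liver function test findings.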

For `CC(CCc1ccc(O)cc1)NCCc1ccc(O)c(O)c1` (stereo not given) [DOBUTAMINE], in the series on Hepatotoxicity [1], the “HepSE_elevated liver function tests” value came to 0. Further, the HepSE_liver disease in the series with Hepatotoxicity [2] came to 0. The molecule also came in with a HepSE_hepatomegaly in the series with Hepatotoxicity [3] of 0. Besides, the “HepSE_Combined Scores” value in the series with Hepatotoxicity [4] amounted to 0. The HepSE_hepatic failure in the series with Hepatotoxicity [5] came to 0. The molecule further displayed a HepSE_jaundice in the series with Hepatotoxicity [6] of 0. The HepSE_bilirubinemia in the series with Hepatotoxicity [7] is on record as 0. Also, the “HepSE_liver function tests abnormal” value with Hepatotoxicity [8] stood at 0. Moreover, the HepSE_cholelithiasis with Hepatotoxicity [9] amounted to 0. This molecule had a HepSE_hepatitis with Hepatotoxicity [10] of 0. Also, the HepSE_cholecystitis in the series with Hepatotoxicity [11] came out at 0. Further, the HepSE_hepatic necrosis in the series on Hepatotoxicity [12] amounted to 0. This molecule returned a HepSE_liver fatty with Hepatotoxicity [13] of 0. In the series on Hepatotoxicity [14], this molecule yielded a HepSE_cirrhosis of 0.

Consider `NC(CO)(CO)CO` [TROMETHAMINE], for which, in the series on Hepatotoxicity [1] (Liver), the “HepSE_elevated liver function tests” value is 0. In the series with Hepatotoxicity [2] (Liver), this molecule displayed a HepSE_liver disease of 0. The molecule also yielded a HepSE_hepatomegaly with Hepatotoxicity [3] (Liver) of 0. The “HepSE_Combined Scores” value in the series on Hepatotoxicity [4] (Liver) is given as 0. For the same molecule, the HepSE_hepatic failure in the series on Hepatotoxicity [5] (Liver) is recorded as 0. Further, the HepSE_jaundice in the series on Hepatotoxicity [6] (Liver) was 0. Besides, the HepSE_bilirubinemia with Hepatotoxicity [7] (Liver) is reported as 0. The “HepSE_liver function tests abnormal” value with Hepatotoxicity [8] (Liver) amounted to 0. The molecule further displayed a HepSE_cholelithiasis with Hepatotoxicity [9] (Liver) of 0. Also, in the series with Hepatotoxicity [10] (Liver), the HepSE_hepatitis is given as 0. In addition, the HepSE_cholecystitis in the series with Hepatotoxicity [11] (Liver) is 0. Besides, the HepSE_hepatic necrosis in the series on Hepatotoxicity [12] (Liver) came out at 0. This molecule displayed a HepSE_liver fatty in the series with Hepatotoxicity [13] (Liver) of 0. In the series on Hepatotoxicity [14] (Liver), this molecule yielded a HepSE_cirrhosis of 0.

On to `O=C(CCCCC(=O)Nc1c(I)cc(I)c(C(=O)O)c1I)Nc1c(I)cc(I)c(C(=O)O)c1I` [IODIPAMIDE], for which, in the series with Hepatotoxicity [1], the “HepSE_elevated liver function tests” value is recorded as 0. For the same molecule, in the series with Hepatotoxicity [2], the HepSE_liver disease worked out at 0. Further, in the series with Hepatotoxicity [3], the HepSE_hepatomegaly stood at 0. For the same molecule, the “HepSE_Combined Scores” value in the series on Hepatotoxicity [4] is reported as 0. This molecule yielded a HepSE_hepatic failure in the series on Hepatotoxicity [5] of 0. In addition, the HepSE_jaundice in the series with Hepatotoxicity [6] is reported as 0. Besides, in the series on Hepatotoxicity [7], the HepSE_bilirubinemia was 0. For the same molecule, the “HepSE_liver function tests abnormal” value in the series with Hepatotoxicity [8] was 0. In the series with Hepatotoxicity [9], this molecule displayed a HepSE_cholelithiasis of 0. In addition, the HepSE_hepatitis in the series with Hepatotoxicity [10] was 0. In the series with Hepatotoxicity [11], the HepSE_cholecystitis is listed as 0. In the series on Hepatotoxicity [12], this molecule registered a HepSE_hepatic necrosis of 0. The same molecule had a HepSE_liver fatty with Hepatotoxicity [13] of 0. The molecule further registered a HepSE_cirrhosis in the series with Hepatotoxicity [14] of 0.

Take `NC(=O)NO` [HYDROXYUREA]: the “HepSE_elevated liver function tests” value with Hepatotoxicity [1] worked out at 0. In addition, the HepSE_liver disease in the series on Hepatotoxicity [2] turned out to be 0. The molecule further returned a HepSE_hepatomegaly in the series with Hepatotoxicity [3] of 0. In addition, the “HepSE_Combined Scores” value with Hepatotoxicity [4] was determined as 0. Further, the HepSE_hepatic failure with Hepatotoxicity [5] was found to be 0. This molecule came in with a HepSE_jaundice in the series with Hepatotoxicity [6] of 0. In the series on Hepatotoxicity [7], this molecule displayed a HepSE_bilirubinemia of 0. The “HepSE_liver function tests abnormal” value with Hepatotoxicity [8] was determined as 0. Further, the HepSE_cholelithiasis in the series with Hepatotoxicity [9] was 0. In the series with Hepatotoxicity [10], this molecule returned a HepSE_hepatitis of 0. Also, the HepSE_cholecystitis with Hepatotoxicity [11] worked out at 0. In addition, the HepSE_hepatic necrosis with Hepatotoxicity [12] is 0. This molecule returned a HepSE_liver fatty in the series on Hepatotoxicity [13] of 0. This molecule also came in with a HepSE_cirrhosis in the series with Hepatotoxicity [14] of 0.

On to `CC1=C(C/C=C(\C)CCC[C@H](C)CCC[C@H](C)CCCC(C)C)C(=O)c2ccccc2C1=O` [PHYTONADIONE], for which, in the series on Hepatotoxicity [1], the “HepSE_elevated liver function tests” value worked out at 0. In the series on Hepatotoxicity [2], this molecule displayed a HepSE_liver disease of 0. In the series with Hepatotoxicity [3], this molecule yielded a HepSE_hepatomegaly of 0. Besides, the “HepSE_Combined Scores” value in the series on Hepatotoxicity [4] amounted to 1. This molecule registered a HepSE_hepatic failure with Hepatotoxicity [5] of 0. In the series on Hepatotoxicity [6], this molecule displayed a HepSE_jaundice of 0. The HepSE_bilirubinemia with Hepatotoxicity [7] amounted to 1. In the series with Hepatotoxicity [8], the “HepSE_liver function tests abnormal” value was determined as 0. The HepSE_cholelithiasis in the series on Hepatotoxicity [9] stood at 0. In the series with Hepatotoxicity [10], this molecule gave a HepSE_hepatitis of 0. The HepSE_cholecystitis with Hepatotoxicity [11] is given as 0. Further, in the series on Hepatotoxicity [12], the HepSE_hepatic necrosis worked out at 0. The HepSE_liver fatty with Hepatotoxicity [13] was 0. Also, the HepSE_cirrhosis in the series with Hepatotoxicity [14] is 0.

Consider `CC(=O)OCC(CCn1cnc2cnc(N)nc21)COC(C)=O` [FAMCICLOVIR], for which, in the series on Hepatotoxicity [1], the “HepSE_elevated liver function tests” value is 0. This molecule returned a HepSE_liver disease in the series with Hepatotoxicity [2] of 0. The same molecule had a HepSE_hepatomegaly in the series with Hepatotoxicity [3] of 0. Further, in the series with Hepatotoxicity [4], the “HepSE_Combined Scores” value is on record as 3. In addition, in the series on Hepatotoxicity [5], the HepSE_hepatic failure is 0. In addition, in the series on Hepatotoxicity [6], the HepSE_jaundice is given as 1. The HepSE_bilirubinemia in the series on Hepatotoxicity [7] is recorded as 1. Also, the “HepSE_liver function tests abnormal” value in the series with Hepatotoxicity [8] is reported as 1. In the series on Hepatotoxicity [9], this molecule registered a HepSE_cholelithiasis of 0. This molecule also registered a HepSE_hepatitis in the series on Hepatotoxicity [10] of 0. The molecule further gave a HepSE_cholecystitis with Hepatotoxicity [11] of 0. This molecule also gave a HepSE_hepatic necrosis in the series on Hepatotoxicity [12] of 0. The same molecule gave a HepSE_liver fatty in the series with Hepatotoxicity [13] of 0. For the same molecule, the HepSE_cirrhosis with Hepatotoxicity [14] is recorded as 0.

With `C[C@H](O)[C@H](O)[C@H]1CNc2nc(N)[nH]c(=O)c2N1` [SAPROPTERIN], the “HepSE_elevated liver function tests” value with Hepatotoxicity [1] is reported as 0. Besides, the HepSE_liver disease with Hepatotoxicity [2] amounted to 0. Moreover, the HepSE_hepatomegaly with Hepatotoxicity [3] is 0. Also, the “HepSE_Combined Scores” value with Hepatotoxicity [4] amounted to 0. In the series on Hepatotoxicity [5], this molecule gave a HepSE_hepatic failure of 0. In the series with Hepatotoxicity [6], this molecule showed a HepSE_jaundice of 0. Also, the HepSE_bilirubinemia with Hepatotoxicity [7] is recorded as 0. Besides, in the series on Hepatotoxicity [8], the “HepSE_liver function tests abnormal” value is on record as 0. This molecule displayed a HepSE_cholelithiasis in the series with Hepatotoxicity [9] of 0. In the series with Hepatotoxicity [10], this molecule came in with a HepSE_hepatitis of 0. In the series on Hepatotoxicity [11], this molecule yielded a HepSE_cholecystitis of 0. Besides, the HepSE_hepatic necrosis with Hepatotoxicity [12] came to 0. Besides, in the series on Hepatotoxicity [13], the HepSE_liver fatty turned out to be 0. Moreover, in the series on Hepatotoxicity [14], the HepSE_cirrhosis was determined as 0.

For the molecule `C[C@H]1[C@H](NC(=O)/C(=N\OC(C)(C)C(=O)O)c2csc(N)n2)C(=O)N1S(=O)(=O)O` [AZTREONAM], the “HepSE_elevated liver function tests” value in the series with Hepatotoxicity [1] is on record as 0. Moreover, the HepSE_liver disease in the series on Hepatotoxicity [2] came to 0. Also, the HepSE_hepatomegaly in the series on Hepatotoxicity [3] is 0. Further, the “HepSE_Combined Scores” value with Hepatotoxicity [4] was 2. Moreover, the HepSE_hepatic failure with Hepatotoxicity [5] was 0. In addition, the HepSE_jaundice with Hepatotoxicity [6] is reported as 1. In the series on Hepatotoxicity [7], this molecule returned a HepSE_bilirubinemia of 0. Further, in the series with Hepatotoxicity [8], the “HepSE_liver function tests abnormal” value came out at 0. In the series on Hepatotoxicity [9], this molecule gave a HepSE_cholelithiasis of 0. Moreover, the HepSE_hepatitis in the series on Hepatotoxicity [10] was 1. This molecule had a HepSE_cholecystitis in the series on Hepatotoxicity [11] of 0. In addition, the HepSE_hepatic necrosis in the series with Hepatotoxicity [12] was found to be 0. Also, the HepSE_liver fatty in the series with Hepatotoxicity [13] was 0. In addition, in the series with Hepatotoxicity [14], the HepSE_cirrhosis amounted to 0.

Regarding `CC[N+](C)(C)Cc1ccccc1Br` [BRETYLIUM], the “HepSE_elevated liver function tests” value in the series with Hepatotoxicity [1] is given as 0. Moreover, in the series on Hepatotoxicity [2], the HepSE_liver disease is listed as 0. Also, the HepSE_hepatomegaly in the series with Hepatotoxicity [3] stood at 0. In the series on Hepatotoxicity [4], the “HepSE_Combined Scores” value is given as 0. Moreover, the HepSE_hepatic failure with Hepatotoxicity [5] amounted to 0. This molecule also returned a HepSE_jaundice in the series on Hepatotoxicity [6] of 0. Also, in the series on Hepatotoxicity [7], the HepSE_bilirubinemia is listed as 0. Besides, the “HepSE_liver function tests abnormal” value in the series on Hepatotoxicity [8] is given as 0. In addition, in the series on Hepatotoxicity [9], the HepSE_cholelithiasis is listed as 0. Also, the HepSE_hepatitis in the series with Hepatotoxicity [10] was 0. In addition, in the series with Hepatotoxicity [11], the HepSE_cholecystitis stood at 0. Also, in the series with Hepatotoxicity [12], the HepSE_hepatic necrosis was determined as 0. In the series with Hepatotoxicity [13], the HepSE_liver fatty turned out to be 0. Besides, the HepSE_cirrhosis in the series on Hepatotoxicity [14] worked out at 0.

On to `O=C(CO)[C@@H](O)[C@@H](O)COP(=O)(O)O`, for which, in the series with Hepatotoxicity [1], the “HepSE_elevated liver function tests” value is listed as 0. Further, in the series with Hepatotoxicity [2], the HepSE_liver disease came to 0. The same molecule came in with a HepSE_hepatomegaly in the series with Hepatotoxicity [3] of 0. In the series on Hepatotoxicity [4], the “HepSE_Combined Scores” value is listed as 0. In the series with Hepatotoxicity [5], this molecule came in with a HepSE_hepatic failure of 0. In the series with Hepatotoxicity [6], this molecule registered a HepSE_jaundice of 0. Also, in the series on Hepatotoxicity [7], the HepSE_bilirubinemia stood at 0. In the series on Hepatotoxicity [8], the “HepSE_liver function tests abnormal” value worked out at 0. For the same molecule, the HepSE_cholelithiasis in the series on Hepatotoxicity [9] was found to be 0. The molecule also displayed a HepSE_hepatitis with Hepatotoxicity [10] of 0. The same molecule had a HepSE_cholecystitis with Hepatotoxicity [11] of 0. Also, the HepSE_hepatic necrosis in the series with Hepatotoxicity [12] was determined as 0. Besides, the HepSE_liver fatty in the series on Hepatotoxicity [13] came to 0. The molecule further showed a HepSE_cirrhosis in the series on Hepatotoxicity [14] of 0.
